# Test results from PMC5702336, “Critical Role of Hepatic Cyp450s in the Testis-Specific Toxicity of (5R)-5-Hydroxytriptolide in C57BL/6 Mice” (Frontiers in Pharmacology, 2017).
# Entries after “also recorded” stand apart in the source; their conditions may differ.
# Columns and labels:
# WT and KO mice = test: 15-day oral toxicological study in WT and hepatic Cpr KO mice (organ weights, H&E, TUNEL, serum chemistry); type: in vivo, mouse
# From the text: Animal use protocols were approved by the Institutional Animal Care and Use Committee of the Shanghai Institute of Materia Medica (Shanghai, China), IACUC No. 2016-10-RJ-136. The Cpr knockout (KO) mice were a gift from Professor Xinxin Ding (Wadsworth Center, Albany, NY, USA). Procedures for animal breeding and genotyping were reported previously (Wu et al., [2005]). Eight to twelve weeks old male KO mice and their WT littermates on a mixed C57BL/6 and 129/Sv genetic background were used in this study. All animals were provided with a certified standard diet and tap water ad libitum during experiments. All animals were maintained under controlled temperature with a 12 h:12 h light/dark cycle. All efforts were made to minimize animal discomfort and illness, and mice were anesthetized with pentobarbital sodium (150 mg/kg, i.p.) before sample collection. No animals died during the experiment.
# For toxicity experiments, mice (n = 3/group) were treated with LLDT-8 (0.5 or 1.0 mg/kg) consecutively administered by gavage for 15 days. Controls received saline. Mice were killed on the 15th-day post-administration and blood, liver, kidney, spleen, testes, and epididymis were collected. About 500 μL blood samples were collected from the heart. The main lobe of the liver, kidney, spleen, and epididymis was fixed in 10% neutral buffered formalin for histological examination, and the left testicle was fixed in modified Davidson's buffer (30% of a 37–40% solution of formaldehyde, 15% ethanol, 5% glacial acetic acid, and 50% distilled H2O) for 16 h followed by 10% neutral buffered formalin for 24 h (Latendresse et al., [2002]). Tissue sections were stained with hematoxylin and eosin (H&E). Remaining tissues were stored at −80°C for RNA and protein extraction.
# Sera were assayed for Urea, creatine (CRE), alanine aminotransferase (ALT), and aspartate transaminase (AST) using an automatic HITACHI Clinical Analyzer Model 7080 (Hitachi High-Technologies Corporation, Tokyo, Japan). The intercoefficients of variability in this assay were1.1% (ALT), 0.9% (AST), 1.2% (Urea) and 1.4% (CRE). The intracoefficients of variability in this assay were 2.0% (ALT), 0.9% (AST), 1.2% (Urea) and 5.1% (CRE).
# TUNEL assays were performed according to the manufacturer's protocol (In Situ Cell Death Kit, Roche Diagnostics, Indianapolis, IN). In brief, the paraffin-embedded testis tissue samples were deparaffinized three times in exchanges wash of xylene. The testis sections were then gradually rehydrated using decreasing ethanol concentrations (100, 95, 90, 80, and 70%) followed by PBS (pH = 7.4). After digestion with proteinase K (15 μg/mL, Cat. No. 539480, Lot. No. D00148754, Millipore, USA), paraffin-embedded tissue sections were labeled with a TUNEL reaction mixture, which contained terminal deoxynucleotidyl transferase incorporated with fluorescein. And 1 μg/mL DAPI (Sigma, USA) to used to reveal nuclear DNA. After staining, images were obtained with a fluorescent microscope (NIKON TS2, Japan).
# [1] = Toxicokinetics of LLDT-8 in WT and liver-Cpr KO mice after a single oral dose (plasma and tissue levels by LC-MS/MS); type: in vivo, mouse; settings: for T1/2: mean ± SD, n = 5
# Procedure: For toxicokinetic experiments, mice (n = 5–6/group for each time point) were treated with a single dose of LLDT-8 at (0.5 or 1.0 mg/kg) by oral gavage, creating 4 treatment groups: 0.5 mg/kg LLDT-8-treated WT and KO mice, and 1.0 mg/kg LLDT-8-treated WT and KO mice. After LLDT-8 treatment, 20 μL blood samples were collected at 5, 10, 20, 30, 45, 60, 90, 120, and 180 min from tail vein. Plasma was separated by centrifugation at 3,000 rpm for 5 min and kept at −80°C until analysis. Tissues including the liver, kidney, testes, and epididymis were also collected from individual mice at 30 and 180 min after dosing and were weighed and homogenized in saline (1.0 g wet weight/mL) on ice. LLDT-8 was then extracted from the plasma or the tissue homogenates with an equal volume of ethyl acetate and dried under nitrogen. The residues were reconstituted in 50 μL of mobile phase for analysis.
# The quantification of LLDT-8 in samples was performed on Shimadzu 20A HPLC system (Shimadzu, Kyoto, Japan) equipped with an autosampler coupled to Shimadzu 8030 triple quadrupole mass spectrometer (Shimadzu, Kyoto, Japan). Separations were conducted under isocratic conditions. The mobile phase consisting of acetonitrile and water with 0.1% formic acid (50:50, v/v) was set at a flow rate of 0.2 mL/min. An electrospray interface in negative ionization mode was used. ESI source parameters were as followed: high purity drying-gas (N2) flow rate 8 L/min, temperature 400°C, nebulizer pressure 25 psi. Multiple reaction monitoring (MRM) was used to quantify LLDT-8 (m/z 421.20 [M+COO]- → 45.10, fragmentor 110 eV, collision energy −20 eV). Analytical data were processed using the labsolution software package (Shimadzu, Kyoto, Japan) consisting of qualitative and quantitative software.
# Standard curves for LLDT-8 were prepared by spiking known amounts of the LLDT-8 standard into plasma or tissue homogenate samples prepared from untreated mice. LLDT-8 concentrations in biological samples were determined by comparisons with standard curves. Pharmacokinetics were calculated using Kinetica software (version 4.4.1; Thermo Fisher Scientific Inc, Woburn, MA).
# [2] = after LLDT-8 treatment, 15 days
# [3] = KO mice, plasma, 1.0 mg/kg single oral dose
# [4] = WT mice, plasma, 1.0 mg/kg single oral dose
structure (smiles),measurement,setting,value
"CC(C)[C@]12O[C@H]1[C@@H]1O[C@]13[C@]1(O[C@H]1C[C@@]1(O)C4=C(CC[C@]31C)C(=O)OC4)[C@@H]2O [LLDT-8, (5R)-5-hydroxytriptolide]",epididymis weight,WT and KO mice; 0.5–1 mg/kg by gavage 15 days,not changed
same,testes weight,WT and KO mice; 0.5–1 mg/kg by gavage 15 days,dose-dependently reduced
same,testis histology (H&E) in KO mice compared to WT mice,WT and KO mice; 0.5–1 mg/kg by gavage 15 days,reduced germinal cell layers; also recorded: severe vacuolar degeneration; also recorded: absence of spermatids development
same,body weight,"WT and KO mice; 0.5–1 mg/kg by gavage 15 days, WT and KO mice",did not alter
same,hematology and spleen in KO mice,WT and KO mice; 15 days by gavage,induced hematological change and enlarged spleen
same,liver injury and kidney damage,"WT and KO mice; 15 days by gavage, WT and KO mice",did not cause liver injury and kidney damage
same,TUNEL-positive foci in testes of WT mice vs WT mice with saline,WT and KO mice; [2],apparently increased
same,"number of TUNEL positive foci in testis, KO mice vs WT mice",WT and KO mice; [2],much higher
same,"LLDT-8 levels in liver, kidney, testis and epididymis of KO mice relative to WT mice",[1]; 30 min after 1.0 mg/kg oral dose,2–3 folds
same,AUC,[1]; [3],753.52 ± 76.39 [ng/ml] × h
same,CL (oral clearance),[1]; [3],22.2 ± 2 mL/min/kg
same,Cmax,[1]; [3],57.97 ± 8.28 ng/mL
same,Tmax,[1]; [3],19.8 ± 6.6 min
same,T1/2,[1]; [3],35.4 ± 3.6 min
same,CL (oral clearance),[1]; [4],68.8 ± 8.83 mL/min/kg
same,Cmax,[1]; [4],29.95 ± 2.81 ng/mL
same,Tmax,[1]; [4],10.2 ± 0 min
same,T1/2,[1]; [4],18.6 ± 1.8 min
same,clearance in KO mice compared to WT mice,[1]; single oral dose,marked decrease
same,increase in AUC in KO mice,"[1]; single oral dose, KO vs WT",3.1 folds to WT mice
same,increase in Cmax in KO mice,"[1]; single oral dose, KO vs WT",1.9 folds to WT mice
same,increase in half-life in KO mice,"[1]; single oral dose, KO vs WT",1.9 folds to WT mice
